Reference: patent US20210053957A1, “HERBICIDAL COMPOUNDS” (SYNGENTA PARTICIPATIONS AG, priority 2018, published 2021)

Columns and labels:
Experiment in all cases: Post-emergence efficacy, glasshouse spray test
Format in all cases: in vivo
Setaia fabei (SETFA) = conditions: Application Rate 500 g/Ha, evaluated after 13 days; for pest or weed control at 500 g/ha: Setaria faberi, post-emergence, 312 h, read-out: Control of weed species after post-emergence application, SETFA (100=total damage to plant; 0=no damage to plant)
Method: (§1) Seeds of a variety of test species were sown in standard soil in pots. After cultivation for 14 days (post-emergence) under controlled conditions in a glasshouse (at 24/16° C. day/night; 14 hours light; 65% humidity), the plants were sprayed with an aqueous spray solution derived from the dissolution of the technical active ingredient formula (I) in a small amount of acetone and a special solvent and emulsifier mixture referred to as IF50 (11.12% Emulsogen EL360 TM+44.44% N-methyl pyrrolidone+44.44% Dowanol DPM glycolether), to create a 50 g/l solution which was then diluted to required concentration using 0.25% or 1% Empicol ESC70 (Sodium lauryl ether sulphate)+1% ammonium sulphate as diluent. The test plants were then grown in a glasshouse under controlled conditions (at 24/16° C., day/night; 14 hours light; 65% humidity) and watered twice daily. After 13 days the test was evaluated (100=total damage to plant; 0=no damage to plant).
(§2) Ipomoea hederacea (IPOHE), Euphorbia heterophylla (EPHHL), Chenopodium album (CHEAL), Amaranthus palmeri (AMAPA), Lolium perenne (LOLPE), Digitaria sanguinalis (DIGSA), Eleusine indica (ELEIN), Echinochloa crus-galli (ECHCG), Setaia fabei (SETFA)

[1] = tested on: Ipomoea hederacea (IPOHE); conditions: Application Rate 500 g/Ha, evaluated after 13 days; for pest or weed control at 500 g/ha: Ipomoea hederacea, post-emergence, 312 h, read-out: Control of weed species after post-emergence application, IPOHE (100=total damage to plant; 0=no damage to plant)
Method: as §1, §2

Eleusine indica (ELEIN) = conditions: Application Rate 500 g/Ha, evaluated after 13 days; for pest or weed control at 500 g/ha: Eleusine indica, post-emergence, 312 h, read-out: Control of weed species after post-emergence application, ELEIN (100=total damage to plant; 0=no damage to plant)
Method: as §1, §2

[2] = tested on: Euphorbia heterophylla (EPHHL); conditions: Application Rate 500 g/Ha, evaluated after 13 days; for pest or weed control at 500 g/ha: Euphorbia heterophylla, post-emergence, 312 h, read-out: Control of weed species after post-emergence application, EPHHL (100=total damage to plant; 0=no damage to plant)
Method: as §1, §2

[3] = tested on: Amaranthus palmeri (AMAPA); conditions: Application Rate 500 g/Ha, evaluated after 13 days; for pest or weed control at 500 g/ha: Amaranthus palmeri, post-emergence, 312 h, read-out: Control of weed species after post-emergence application, AMAPA (100=total damage to plant; 0=no damage to plant)
Method: as §1, §2

[4] = tested on: Digitaria sanguinalis (DIGSA); conditions: Application Rate 500 g/Ha, evaluated after 13 days; for pest or weed control at 500 g/ha: Digitaria sanguinalis, post-emergence, 312 h, read-out: Control of weed species after post-emergence application, DIGSA (100=total damage to plant; 0=no damage to plant)
Method: as §1, §2

[5] = tested on: Chenopodium album (CHEAL); conditions: Application Rate 500 g/Ha, evaluated after 13 days; for pest or weed control at 500 g/ha: Chenopodium album, post-emergence, 312 h, read-out: Control of weed species after post-emergence application, CHEAL (100=total damage to plant; 0=no damage to plant)
Method: as §1, §2

[6] = tested on: Echinochloa crus-galli (ECHCG); conditions: Application Rate 500 g/Ha, evaluated after 13 days; for pest or weed control at 500 g/ha: Echinochloa crus-galli, post-emergence, 312 h, read-out: Control of weed species after post-emergence application, ECHCG (100=total damage to plant; 0=no damage to plant)
Method: as §1, §2

Lolium perenne (LOLPE) = conditions: Application Rate 500 g/Ha, evaluated after 13 days; for pest or weed control at 500 g/ha: Lolium perenne, post-emergence, 312 h, read-out: Control of weed species after post-emergence application, LOLPE (100=total damage to plant; 0=no damage to plant)
Method: as §1, §2

| Structure (SMILES) | pest or weed control at 500 g/ha (Setaia fabei (SETFA)) | pest or weed control at 500 g/ha [1] | pest or weed control at 500 g/ha (Eleusine indica (ELEIN)) | pest or weed control at 500 g/ha [2] | pest or weed control at 500 g/ha [3] | pest or weed control at 500 g/ha [4] | pest or weed control at 500 g/ha [5] | pest or weed control at 500 g/ha [6] | pest or weed control at 500 g/ha (Lolium perenne (LOLPE)) | Control of weed species after post-emergence application, SETFA (100=total damage to plant; 0=no damage to plant) (Setaia fabei (SETFA)) | Control of weed species after post-emergence application, IPOHE (100=total damage to plant; 0=no damage to plant) [1] | Control of weed species after post-emergence application, ELEIN (100=total damage to plant; 0=no damage to plant) (Eleusine indica (ELEIN)) | Control of weed species after post-emergence application, EPHHL (100=total damage to plant; 0=no damage to plant) [2] | Control of weed species after post-emergence application, AMAPA (100=total damage to plant; 0=no damage to plant) [3] | Control of weed species after post-emergence application, DIGSA (100=total damage to plant; 0=no damage to plant) [4] | Control of weed species after post-emergence application, CHEAL (100=total damage to plant; 0=no damage to plant) [5] | Control of weed species after post-emergence application, ECHCG (100=total damage to plant; 0=no damage to plant) [6] | Control of weed species after post-emergence application, LOLPE (100=total damage to plant; 0=no damage to plant) (Lolium perenne (LOLPE)) |
| --- | --- | --- | --- | --- | --- | --- | --- | --- | --- | --- | --- | --- | --- | --- | --- | --- | --- | --- |
| Cc1nsc(-c2cc[n+](CCS(=O)(=O)[O-])nc2)n1 [Compound A10] | 60% | 50% | 60% | 60% | 60% | 50% | 80% | 30% | 60% |  |  |  |  |  |  |  |  |  |
| Cn1nnc(-c2cc[n+](CCS(=O)(=O)O)nc2)n1 [Compound A11] | 100% | 60% | 100% | 100% | 100% | 90% | 90% | 100% | 80% |  |  |  |  |  |  |  |  |  |
| Cn1nnnc1-c1cc[n+](CCS(=O)(=O)O)nc1 [Compound A12] | 40% | 20% | 30% | 20% | 60% | 60% | 30% | 30% | 70% |  |  |  |  |  |  |  |  |  |
| Cc1csc(-c2cc[n+](CCS(=O)(=O)[O-])nc2)n1 [Compound A13] | 60% | 40% | 80% | 90% | 90% | 30% | 70% | 40% | 60% |  |  |  |  |  |  |  |  |  |
| Cc1nc(-c2cc[n+](CCS(=O)(=O)[O-])nc2)oc1C [Compound A14] | 50% | 40% | 70% | 50% | 100% | 50% | 40% | 40% | 40% |  |  |  |  |  |  |  |  |  |
| Cc1cnc(-c2cc[n+](CCC(=O)O)nc2)o1 [Compound A15, 3-[4-(5-methyloxazol-2-yl)pyridazin-1-ium-1-yl]propanoic acid; 2,2,2-trifluoroacetate] | 70% | 30% | 100% | 100% | 100% | 80% | 80% | 80% | 60% |  |  |  |  |  |  |  |  |  |
| Cn1ncnc1-c1cc[n+](CCS(=O)(=O)[O-])nc1 [Compound A16] | 80% | 80% | 80% | 90% | 100% | 70% | 100% | 80% | 90% |  |  |  |  |  |  |  |  |  |
| Cc1nc(-c2cc[n+](CCS(=O)(=O)[O-])nc2)sc1C [Compound A17] | 50% | 30% | 60% | 40% | 30% | 50% | 30% | 40% | 50% |  |  |  |  |  |  |  |  |  |
| O=S(=O)([O-])CC[n+]1ccc(-c2nc(C(F)(F)F)cs2)cn1 [Compound A18] | 40% | 30% | 30% | 50% | 90% | 30% | 10% | 30% | 40% |  |  |  |  |  |  |  |  |  |
| O=S(=O)([O-])CC[n+]1ccc(-c2ncco2)cn1 [Compound A19] | 60% | 70% | 100% | 100% | 40% | 70% | 100% | 80% | 90% |  |  |  |  |  |  |  |  |  |
| CCOC(=O)CC[n+]1ccc(-c2cocn2)cn1 [Compound A20] | 20% | 10% | 50% | 10% | 40% | 60% | 20% | 30% | 10% |  |  |  |  |  |  |  |  |  |
| CC(C)(C)COS(=O)(=O)CC[n+]1ccc(-c2cocn2)cn1 [Compound A21, 2,2-dimethylpropyl 2-(4-oxazol-4-ylpyridazin-1-ium-1-yl)ethanesulfonate; 2,2,2-trifluoroacetate] | 10% | 10% | 10% | 40% | 10% | 10% | 40% | 10% | 0% |  |  |  |  |  |  |  |  |  |
| O=S(=O)([O-])CC[n+]1ccc(-c2cocn2)cn1 [Compound A22, 2-(4-oxazol-4-ylpyridazin-1-ium-1-yl)ethanesulfonate] | 20% | 10% | 20% | 30% | 30% | 20% | 20% | 20% | 10% |  |  |  |  |  |  |  |  |  |
| CC(C)c1csc(-c2cc[n+](CCS(=O)(=O)O)nc2)n1 [Compound A23] |  |  |  |  |  |  |  |  |  | 40 | 30 | 60 | 70 | 50 | 50 | 10 | 30 | 40 |
| O=S(=O)([O-])CC[n+]1ccc(-c2nc(Cl)cs2)cn1 [Compound A25] | 40% | 40% | 40% | 80% | 80% | 40% | 70% | 30% | 20% |  |  |  |  |  |  |  |  |  |
| Cn1ncnc1-c1cc[n+](CCC(=O)O)nc1 [Compound A27] | 90% | 70% | 50% | 90% | 100% | 90% | 90% | 90% | 30% |  |  |  |  |  |  |  |  |  |
